The values below come from patent US7491819B1 (priority 2004, dated 2009).

The assay deals with T1, HIV-integrase (Human immunodeficiency virus type 1 group M subtype B, UniProt P12497).
T1 construct: Recombinant integrase (0.26 ng) was incubated with the beads
Put plainly: HIV-Integrase Inhibition Activity (SPA bead strand-transfer assay). It is filed as biochemical. As to conditions: Table 1; read-out: Activity (HIV-integrase inhibition, IC50 class). In a few lines: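 Strand-transfer read-out: CPM from P33-labelled target DNA (0.1 fmol) joined to bead-bound biotin substrate DNA (5 pmole), with EDTA stop at 10 mM final. Integrase (0.26 ng) prebound to streptavidin SPA beads 90 min, 37° C, and washed before adding inhibitor.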
In the case of `Cc1ccc(CNC(=O)c2nc3n(c(=O)c2O)CCOC3(C)C)cc1Cl` [Example 231, Pyrimido[2,1-c][1,4]oxazine-2-carboxamide, N-[(3-chloro-4-methylphenyl)methyl]-4,6,7,9-tetrahydro-3-hydroxy-9,9-dimethyl-4-oxo-], the IC50 lay within 2 to 100 nM.
On to `CNC(=O)COc1cc(F)ccc1CNC(=O)c1nc2n(c(=O)c1O)CCOC2(C)C` [Example 97, Pyrimido[2,1-c][1,4]oxazine-2-carboxamide, N-[[4-fluoro-2-[2-(methylamino)-2-oxoethoxy]phenyl]methyl]-4,6,7,9-tetrahydro-3-hydroxy-9,9-dimethyl-4-oxo-], for which the IC50 lay in the range of 2 to 100 nM.
With `CC1(C)OCCn2c1nc(C(=O)NCc1ccccc1-c1ccc(N)nc1)c(O)c2=O` [Example 157, Pyrimido[2,1-c][1,4]oxazine-2-carboxamide, N-[[2-(6-amino-3-pyridinyl)phenyl]methyl]-4,6,7,9-tetrahydro-3-hydroxy-9,9-dimethyl-4-oxo-] the figure was 2 to 100 nM.
Under `CC1(C)OCCn2c1nc(C(=O)NCc1ccccc1-c1ccc3c(c1)OCO3)c(O)c2=O` [Example 187, Pyrimido[2,1-c][1,4]oxazine-2-carboxamide, N-[[2-(1,3-benzodioxol-5-yl)phenyl]methyl]-4,6,7,9-tetrahydro-3-hydroxy-9,9-dimethyl-4-oxo-] stands 2 to 100 nM.
With `CC1(C)OCCn2c1nc(C(=O)NCc1ccccc1-c1cccc(O)c1)c(O)c2=O` [Example 165, Pyrimido[2,1-c][1,4]oxazine-2-carboxamide, 4,6,7,9-tetrahydro-3-hydroxy-N-[(3′-hydroxy[1,1′-biphenyl]-2-yl)methyl]-9,9-dimethyl-4-oxo-] the figure was 2 to 100 nM; with `COc1cccc(CNC(=O)c2nc3n(c(=O)c2O)CCOC3(C)C)c1` [Example 222, Pyrimido[2,1-c][1,4]oxazine-2-carboxamide, 4,6,7,9-tetrahydro-3-hydroxy-N-[(3-methoxyphenyl)methyl]-9,9-dimethyl-4-oxo-], 2 to 100 nM.
On to `CC1(C)OCCn2c1nc(C(=O)NCc1ccccc1-c1ccncc1)c(O)c2=O` [Example 190, Pyrimido[2,1-c][1,4]oxazine-2-carboxamide, 4,6,7,9-tetrahydro-3-hydroxy-9,9-dimethyl-4-oxo-N-[[2-(4-pyridinyl)phenyl]methyl]-], for which the IC50 was in the range of 2 to 100 nM.
For `CNC(=O)c1cc(F)ccc1CNC(=O)c1nc2n(c(=O)c1O)CCOC2` [Example 3, Pyrimido[2,1-c][1,4]oxazine-2-carboxamide, N-[[4-fluoro-2-[(methylamino)carbonyl]phenyl]methyl]-4,6,7,9-tetrahydro-3-hydroxy-4-oxo-], the IC50 lay within 2 to 100 nM.
Under `Cc1cc(-c2cc(F)ccc2CNC(=O)c2nc3n(c(=O)c2O)CCOC3(C)C)on1` [Example 210, Pyrimido[2,1-c][1,4]oxazine-2-carboxamide, N-[[4-fluoro-2-(3-methyl-5-isoxazolyl)phenyl]methyl]-4,6,7,9-tetrahydro-3-hydroxy-9,9-dimethyl-4-oxo-] stands 2 to 100 nM.
Under `Cc1ncnn1-c1cc(F)ccc1CNC(=O)c1nc2n(c(=O)c1O)CCOC2(C)C` [Example 82, Pyrimido[2,1-c][1,4]oxazine-2-carboxamide, N-[[4-fluoro-2-(5-methyl-1H-1,2,4-triazol-1-yl)phenyl]methyl]-4,6,7,9-tetrahydro-3-hydroxy-9,9-dimethyl-4-oxo-] stands 2 to 100 nM; under `CC1(C)OCCn2c1nc(C(=O)NCc1ccccc1)c(O)c2=O` [Example 219, Pyrimido[2,1-c][1,4]oxazine-2-carboxamide, 4,6,7,9-tetrahydro-3-hydroxy-9,9-dimethyl-4-oxo-N-(phenylmethyl)-], 2 to 100 nM.
With `COC(=O)c1cccc(CNC(=O)c2nc3n(c(=O)c2O)CCOC3(C)C)c1` [Example 264, Benzoic acid, 3-[[[(4,6,7,9-tetrahydro-3-hydroxy-9,9-dimethyl-4-oxopyrimido[2,1-c][1,4]oxazin-2-yl)carbonyl]amino]methyl]-, methyl ester] the figure was 2 to 100 nM.
On to `CC1(C)OCCn2c1nc(C(=O)NCc1ccc(F)cc1-n1cnc(C(=O)NS(=O)(=O)c3ccc(F)cc3)n1)c(O)c2=O` [Example 68, Pyrimido[2,1-c][1,4]oxazine-2-carboxamide, N-[[4-fluoro-2-[3-[[[(4-fluorophenyl)sulfonyl]amino]carbonyl]-1H-1,2,4-triazol-1-yl]phenyl]methyl]-4,6,7,9-tetrahydro-3-hydroxy-9,9-dimethyl-4-oxo-], for which the IC50 fell in the range of 2 to 100 nM.
On to `Cc1ccc(CNC(=O)c2nc3n(c(=O)c2O)CCOC3(C)C)c(F)c1F` [Example 276, Pyrimido[2,1-c][1, 4]oxazine-2-carboxamide, N-[(2,3-difluoro-4-methylphenyl)methyl]-4,6,7,9-tetrahydro-3-hydroxy-9,9-dimethyl-4-oxo-], for which the IC50 was 2 to 100 nM.
Under `CC1(C)OCCn2c1nc(C(=O)NCc1cccc3c1S(=O)(=O)C=C3)c(O)c2=O` [Example 139, Pyrimido[2,1-c][1,4]oxazine-2-carboxamide, N-[(1,1-dioxidobenzo[b]thien-7-yl)methyl]-4,6,7,9-tetrahydro-3-hydroxy-9,9-dimethyl-4-oxo-] stands 2 to 100 nM.
With `CC1(C)OCCn2c1nc(C(=O)NCc1ccccc1-c1ccc(N3CCOCC3)nc1)c(O)c2=O` [Example 156, Pyrimido[2,1-c][1,4]oxazine-2-carboxamide, 4,6,7,9-tetrahydro-3-hydroxy-9,9-dimethyl-N-[[2-[6-(4-morpholinyl)-3-pyridinyl]phenyl]methyl]-4-oxo-] the figure was 2 to 100 nM; with `Cc1noc(C)c1-c1ccccc1CNC(=O)c1nc2n(c(=O)c1O)CCOC2(C)C` [Example 180, Pyrimido[2,1-c][1,4]oxazine-2-carboxamide, N-[[2-(3,5-dimethyl-4-isoxazolyl)phenyl]methyl]-4,6,7,9-tetrahydro-3-hydroxy-9,9-dimethyl-4-oxo-], 2 to 100 nM.
In the case of `CC1(C)OCCn2c1nc(C(=O)NCc1ccc(F)cc1Br)c(O)c2=O` [Example 59, Pyrimido[2,1-c][1,4]oxazine-2-carboxamide, N-[(2-bromo-4-fluorophenyl)methyl]-4,6,7,9-tetrahydro-3-hydroxy-9,9-dimethyl-4-oxo-], the IC50 fell in the range of 2 to 100 nM.
Under `CN(C)CC#Cc1cc(F)ccc1CNC(=O)c1nc2n(c(=O)c1O)CCOC2(C)C` [Example 91, Pyrimido[2,1-c][1,4]oxazine-2-carboxamide, N-[[2-[3-(dimethylamino)-1-propynyl]-4-fluorophenyl]methyl]-4,6,7,9-tetrahydro-3-hydroxy-9,9-dimethyl-4-oxo-] stands 2 to 100 nM.
With `CC1(C)OCCn2c1nc(C(=O)NCCCc1ccc(F)cc1)c(O)c2=O` [Example 26, Pyrimido[2,1-c][1,4]oxazine-2-carboxamide, N-[3-(4-fluorophenyl)propyl]-4,6,7,9-tetrahydro-3-hydroxy-9,9-dimethyl-4-oxo-] the figure was 2 to 100 nM; with `COc1ncccc1-c1ccccc1CNC(=O)c1nc2n(c(=O)c1O)CCOC2(C)C` [Example 152, Pyrimido[2,1-c][1,4]oxazine-2-carboxamide, 4,6,7,9-tetrahydro-3-hydroxy-N-[[2-(2-methoxy-3-pyridinyl)phenyl]methyl]-9,9-dimethyl-4-oxo-], 2 to 100 nM.
`CCC1OCCn2c1nc(C(=O)NCc1ccc(F)c(C)c1)c(O)c2=O` (centres unmarked) [Example 11, Pyrimido[2,1-c][1,4]oxazine-2-carboxamide, 9-ethyl-N-[(4-fluoro-3-methylphenyl)methyl]-4,6,7,9-tetrahydro-3-hydroxy-4-oxo-]: the IC50 was 2 to 100 nM.
As to `CC1(C)OCCn2c1nc(C(=O)NCc1ccc(F)cc1-n1cnc(C(=O)NS(C)(=O)=O)n1)c(O)c2=O` [Example 64, Pyrimido[2,1-c][1,4]oxazine-2-carboxamide, N-[[4-fluoro-2-[3-[[(methylsulfonyl)amino]carbonyl]-1H-1,2,4-triazol-1-yl]phenyl]methyl]-4,6,7,9-tetrahydro-3-hydroxy-9,9-dimethyl-4-oxo-], the IC50 is 2 to 100 nM.
With `Cc1nnc(Nc2cc(F)ccc2CNC(=O)c2nc3n(c(=O)c2O)CCOC3(C)C)s1` [Example 116, Pyrimido[2,1-c][1,4]oxazine-2-carboxamide, N-[[4-fluoro-2-[(5-methyl-1,3,4-thiadiazol-2-yl)amino]phenyl]methyl]-4,6,7,9-tetrahydro-3-hydroxy-9,9-dimethyl-4-oxo-] the figure was 2 to 100 nM.
With `CCC1OCCn2c1nc(C(=O)NCc1ccc(F)cc1C(=O)NC)c(O)c2=O` (centres unmarked) [Example 15, Pyrimido[2,1-c][1,4]oxazine-2-carboxamide, 9-ethyl-N-[[4-fluoro-2-[(methylamino)carbonyl]phenyl]methyl]-4,6,7,9-tetrahydro-3-hydroxy-4-oxo-] the figure was 2 to 100 nM; with `Cc1ccc(-c2ccccc2CNC(=O)c2nc3n(c(=O)c2O)CCOC3(C)C)cc1` [Example 162, Pyrimido[2,1-c][1,4]oxazine-2-carboxamide, 4,6,7,9-tetrahydro-3-hydroxy-9,9-dimethyl-N-[(4′-methyl[1,1′-biphenyl]-2-yl)methyl]-4-oxo-], 2 to 100 nM; with `Cc1cc(F)ccc1CNC(=O)c1nc2n(c(=O)c1O)CCOC2(C)C` [Example 39, Pyrimido[2,1-c][1,4]oxazine-2-carboxamide, N-[(4-fluoro-2-methylphenyl)methyl]-4,6,7,9-tetrahydro-3-hydroxy-9,9-dimethyl-4-oxo-], 2 to 100 nM.
With `CCOc1cccc(CNC(=O)c2nc3n(c(=O)c2O)CCOC3(C)C)c1` [Example 249, Pyrimido[2,1-c][1,4]oxazine-2-carboxamide, N-[(3-ethoxyphenyl)methyl]-4,6,7,9-tetrahydro-3-hydroxy-9,9-dimethyl-4-oxo-] the figure was 2 to 100 nM; with `CC1(C)OCCn2c1nc(C(=O)NCc1ccc(F)c(Br)c1)c(O)c2=O` [Example 30, Pyrimido[2,1-c][1,4]oxazine-2-carboxamide, N-[(3-bromo-4-fluorophenyl)methyl]-4,6,7,9-tetrahydro-3-hydroxy-9,9-dimethyl-4-oxo-], 2 to 100 nM.
